The values that follow come from a melting point compilation (Tetko et al.; mined from patent text by program, amines drawn as free bases though some values may be those of a salt).

Usually melting point stands for the temperature, or range, at which the solid turns liquid.

For `O=C(Nc1ccc(OC(F)(F)F)cc1)N1CCOC(c2ccc(Br)s2)=N1`, the melting point is 139 to 140 °C.

In the case of `CC1(C)CCCC=C1c1ccc(C(=O)O)cc1`, the melting point is 181 °C. `COC(=O)C(=O)c1ccc(OCCCC(=O)c2ccc3ccccc3c2)cc1` had a melting point of 86 to 87 °C. Molecule `COC1CCN(c2cc3c(cc2C#Cc2ccccc2)NC(=O)CC(c2cccc(-n4ccnc4)c2)=N3)CC1` had a melting point of 222 °C.

On to `Cc1cccc(C(=O)c2ccc(Cl)cc2)c1`, for which the melting point worked out at 108 °C. Under `CCOC(=O)C=Cc1ccc(N)cc1C` stands 73 to 74 °C; under `Nc1ncc2cc(-c3c(Cl)ccc(Cl)c3Cl)c(N)nc2n1`, 320 to 322 °C. The molecule `N#Cc1ccc(/C=C/S(=O)(=O)CS(=O)(=O)/C=C/c2ccc(C#N)cc2F)c(F)c1` came in with a melting point of 268 to 270 °C. As to `CCOC(=O)c1cc2c(Cl)cccc2n1[C@H](C)CNC(=O)OC(C)(C)C`, the melting point fell in the range of 115 to 119 °C.

Regarding `CC(C)(C)c1cc(SCCC(=O)NCC(=O)c2ccccc2)cc(C(C)(C)C)c1O`, the melting point was 146 to 148 °C.

The molecule `O=C(CCl)c1ccc2c(C(=O)CCl)ccc3c2c1CC3` yielded a melting point of 184 to 187 °C. The result for `NS(=O)(=O)c1ccc(-n2nc(C(F)(F)F)cc2-c2ccc(OS(=O)(=O)C(F)(F)F)c(Cl)c2)cn1` reads 118 to 120 °C; that for `O=C(NC1(Cc2ccccc2)C=CCC1)C(Cl)(Cl)Cl` (stereo unspecified), 127 to 128 °C. The result for `CN(C)C(=O)Oc1ccc(CCl)cc1` reads 68 °C. Molecule `CC(=O)N(c1ccc(O)cc1)C(C)C` displayed a melting point of 152 to 153 °C. Under `CN(c1cccc2cc(C3=NCC(C(N)=O)S3)[nH]c12)S(=O)(=O)c1cccs1` (stereo unspecified) stands 230 to 232 °C. The result for `CC(C)c1cccc(C(C)C)c1NC(=O)NCC1(c2ccc3ccccc3c2)CCCC1` reads 152 to 154 °C; that for `CCOc1ccc(C(=O)CC(C(=O)O)N2CCOCC2)cc1OC` (stereo unspecified), 157 °C; that for `C=CCN1C(=O)C2CC2(c2ccc(NC(C)=O)cc2)C1=O` (stereo unspecified), 113 to 116 °C. Under `CC(C)Oc1ccc(-c2nn(C(C)c3oc4ccccc4c(=O)c3-c3cccc(F)c3)c3ncnc(N)c23)cc1` (stereo unspecified) stands 224 to 226 °C.

Molecule `O=C1CCCN(C(=O)c2ccc(Cl)cc2)C(=O)CCc2cc(Cl)ccc21` came in with a melting point of 141 to 143 °C.

In turn, `CC(C)(C)C(=O)Cn1ccnc1` gave a melting point of 20 °C. The result for `O=c1[nH]c2ccccc2c(=O)n1CCCCN1CCC(OC(c2ccccc2)c2ccccc2)CC1` reads 140 to 142 °C. The result for `COc1ccc(OC)c2c1CCC(C#N)C2C#N` (stereo unspecified) reads 126 to 127 °C; that for `NC(=O)c1c(Cl)c(-c2ccccc2)n2c1CN(C(=O)Oc1ccccc1)CC2`, 196 to 198 °C. The result for `Cc1c(C(=O)CC(C)(C)C)c2ccccc2n1CCCNS(C)(=O)=O` reads 139 to 142 °C. Take `CC1CC(=O)N(c2cc(C(C)(C)C)c(O)c(C(C)(C)C)c2)C1` (stereo unspecified): the melting point lay within 157 to 159 °C. For the molecule `COc1cc(NC(=O)CC23CC4CC(CC(C4)C2)C3)c(C)c(OC)c1`, the melting point lay in the range of 201 to 203 °C.

In the case of `O=Cc1ccn(C2=CC3=C(CC2)CCc2[nH]c(=O)c(=O)[nH]c23)c1`, the melting point was more than 250 °C.

With `Oc1cc(Br)cc(-c2ccc3nonc3c2)c1`, the melting point was in the range of 179 to 181 °C.

For `c1ccc2c(c1)[nH]c1cccc(OCC3CO3)c12` (stereo unspecified), the melting point turned out to be 133 °C. The result for `O=[N+]([O-])c1cc([N+](=O)[O-])c(N(SC(Cl)(Cl)Cl)c2cc(C(F)(F)F)ccc2Cl)c(C(F)(F)F)c1` reads 134 to 137 °C. The result for `Cc1nc(OCC(F)(F)F)c([N+](=O)[O-])c(N2CCN(c3ccc(F)cc3)CC2)n1` reads 92 to 95 °C. Under `COc1ccccc1N1CCN(c2cc3ccccc3cn2)CC1` stands 112 to 114 °C. `CC(=O)C=Cc1ccc(NS(C)(=O)=O)c(Oc2ccc(F)cc2F)c1` came in with a melting point of 130 to 132 °C. As to `CS(=O)(=O)Nc1ccc(OCC2CCN(c3cc(N)ccn3)CC2)cc1`, the melting point lay in the range of 213 to 214 °C.

The molecule `c1cc2c3c(cccc3c1)C(NCCCCCCCCCCCCn1ccnc1)=N2` gave a melting point of 95 to 97 °C. Under `CN(C)CCCn1c(-c2ccccc2)cc2cc(O)ccc21` stands 130 °C; under `O=c1[nH]c2ccc(OC3CCCC3)cc2n1C1CCCCC1`, 242 °C; under `CN(C)Cc1ccnc(CSCCNc2ncc(Cc3ccn(C)c(=O)c3)c(=O)[nH]2)c1`, 137 to 139 °C. Under `CCCCCCCCCCCCCCCCCCOc1cc(OCCCCC(=O)OC)cc(N(CC(=O)O)CC(=O)O)c1` stands 91 to 94 °C. The result for `CC(=O)C(O)C1OC(n2cc(Br)c(=O)[nH]c2=O)CC1N=[N+]=[N-]` (stereo unspecified) reads 112 to 114 °C; that for `O=c1[nH]c2ncc(-c3ccc(O)cc3)nc2n1C1CCOCC1`, 382 to 383 °C; that for `Cc1cc(C)c2cccc(OCc3c(Cl)ccc(S(=O)(=O)N4CCC[C@H]4C(=O)N4CCN(S(=O)(=O)c5ccc(C#N)cc5)CC4)c3Cl)c2n1`, 156 to 158 °C. `Cc1ccc(NCCCCOc2ccc3ccccc3c2)cc1` came in with a melting point of 98 °C. Molecule `COc1ccc(C(=O)c2c(F)cccc2F)c(O)c1` yielded a melting point of 71 to 72 °C. Under `OC(c1ccccc1)(c1ccncc1)c1ccc(F)cc1` (stereo unspecified) stands 189 to 192 °C; under `COc1ccc(CC(=O)N2CCN(C(=S)SC)CC2)c(OC)c1OC`, 119 to 120 °C; under `NC(=S)N(c1ccsc1-c1nc(C2CC2)no1)C1CN2CCC1CC2` (stereo unspecified), 155 to 157 °C. For the molecule `O=C(NCC1CCCC1)c1ccc2cc[nH]c2c1`, the melting point lay in the range of 148 to 150 °C. The result for `CC(C)Oc1ccc(/C=C(\NC(=O)c2ccc(OCCCC3CC3)cc2)C(=O)NCCO)cc1` reads 64 to 66 °C. The result for `CC(CC(=O)c1ccccc1)C(=O)N1CCC[C@H]1C(=O)O` (stereo partly specified) reads 218 to 220 °C; that for `CC(=O)NC1CCc2cc3c(cc2C1)OCC3O` (stereo unspecified), 254 °C; that for `CCC(Oc1ccc(C(C)(C)CC)cc1C(C)(C)CC)C(=O)Nc1cc(OC(C)=O)c(C)c(Cl)c1O` (stereo unspecified), 188 to 190 °C. The result for `COc1cc(CN2CCc3cc(OCc4ccccc4)c(OC)cc3C2)cc(OC)c1` reads 95 to 96 °C; that for `COc1ccc(OC)c2c(O)c(C#N)cnc12`, 300 to 305 °C; that for `N#Cc1cc2ccc(O)cc2s1`, 195 to 198 °C. Regarding `CCc1cn(C2CC(O)C(CNC(=O)C(C)S(=O)(=O)c3ccc(Cl)cc3Cl)O2)c(=O)[nH]c1=O` (mixture of isomers), the melting point lay within 183 to 184 °C. Under `CCCCCCCCCCCCCCCCCCOc1cc(SC)cc(C(=O)O)c1` stands 64 to 66 °C; under `CCN1CCNS(=O)(=O)c2cc(Oc3ccccc3)ccc21`, 138 °C; under `CC(=N)Nc1ccc2nc(-c3ccccc3)ncc2c1`, 162 to 164 °C. The result for `CN(C)CC1CN(Cc2ccccc2)c2ccccc2N1C=O` (stereo unspecified) reads 82 to 84 °C; that for `COCCNC(=O)C1=C(C(=O)Nc2cc(OC3CCCC3)c(Cl)cc2F)CCCC1`, 151 °C.

`OCc1cncn1Cc1ccccc1`: the melting point was 131 to 135 °C. Under `O=S(=O)(Nc1ccc2c(OCc3ccc(-c4ccc(Cl)c(Cl)c4)cc3Cl)cccc2c1)C(F)(F)F` stands 169 to 170 °C. Under `CCOC(=O)c1sc(-n2ccc(OCC3CC3)cc2=O)nc1C` stands 180 to 183 °C.

In turn, `COc1cc2cc(CO)c(CO)c(-c3ccnc(-n4nc(O)c5ccccc5c4=O)c3)c2cc1OC` came in with a melting point of more than 250 °C. On to `CNc1nc(-c2cccc(NC(=O)c3ccccc3)c2)c2cc(OCc3ccccc3)c(OC)cc2n1`, for which the melting point fell in the range of 204 to 206 °C. Under `CCCCc1c(Cc2ccc(-c3ccccc3)c(-c3nnn[nH]3)c2)c(COC)nn1CC(F)(F)F` stands 48 °C; under `O=C(/C=C1/c2ccccc2N(C(=O)c2ccc(NC(=O)c3ccccc3-c3ccccc3)cc2)CCC1(F)F)NCc1ccccc1`, 189 to 192 °C. The result for `CCCCCn1nc(-c2ccc(F)cc2)c(-c2ccc(S(C)(=O)=O)cc2)cc1=O` reads 65 to 67 °C; that for `CCOc1ccc(-c2[nH]nc3c2C(=O)c2c(NC(C)=O)cccc2-3)cc1`, 288 °C. Under `CC(C)(C)n1ncc(N)c(Cl)c1=O` stands 194 to 198 °C. In turn, `CC1CCc2c(-c3ccccc3)nc(=O)n(C(C)C)c2C1` (stereo unspecified) came in with a melting point of 150 to 153 °C. Under `CCC1=C(C#N)C(c2cccc(Cl)c2Cl)c2c[nH]nc2N1` (stereo unspecified) stands more than 300 °C; under `COC(=O)c1occc1NC(N)=O`, 208 °C. The molecule `Cc1c(-c2cc(Nc3cc4n(n3)CCN(C)C4)c(=O)n(CO)n2)cccc1N1Cc2cc(C(C)(C)C)sc2C1=O` came in with a melting point of 185 to 187 °C. The result for `COCCOc1ccc(COC(=O)NS(=O)(=O)CCC(C)C)c(Oc2ncc(C(F)(F)F)cc2Cl)c1` reads 122 to 124 °C; that for `O=C(Cc1ccc2c(c1)OCO2)Nc1cc(C2CC2)n[nH]1`, 174 to 176 °C.

`CC(C)(C)OC(=O)c1c(Cl)cc(N2C(=O)N3CCCC3(Cc3ccc(Br)cc3)C2=O)cc1Cl` (stereo unspecified) came in with a melting point of 109 to 110 °C. Under `CCOC(=O)C1(O)C(=O)Nc2c(OC)cc(CCNC(=O)C(F)(F)F)cc21` (stereo unspecified) stands 115 to 117 °C; under `COc1ccccc1Oc1c(NS(=O)(=O)c2ccc(CC(C)C)cc2)nc(-c2ncccn2)nc1OCCOC(N)=O`, 138 to 140 °C. Molecule `CCCCCCCCCCN(O)C(=O)NCCCC(=O)OC` returned a melting point of 89 to 90 °C.

`CCC(=O)OC1C(=O)N(c2nnc(C(C)(C)C)s2)C(=O)N1C` (stereo unspecified): the melting point is 176 °C. Under `CC(C)(CNC1(c2ccccc2Cl)C(=O)Nc2ccc(Cl)cc21)NC(=O)OC(C)(C)C` (stereo unspecified) stands 164 °C; under `COC(=O)/C(=C/CC[C@H](NC(=O)OCc1ccccc1)C(=O)N[C@H](C)C(=O)OC)NC(=O)OC(C)(C)C`, 120 to 121 °C.
